According to publication PMC6449304, “Novel parameter describing restriction endonucleases: Secondary-Cognate-Specificity and chemical stimulation of TsoI leading to substrate specificity change” (Applied Microbiology and Biotechnology, 2019):

Target: T1, TsoI (Thermus scotoductus, UniProt T1RQY5)
T1 construct: gene tsoIRM; native enzyme purified from Thermus scotoductus RFL4; bifunctional REase-MTase, TspDTI subfamily
T1 sequence (T1RQY5 1-1116): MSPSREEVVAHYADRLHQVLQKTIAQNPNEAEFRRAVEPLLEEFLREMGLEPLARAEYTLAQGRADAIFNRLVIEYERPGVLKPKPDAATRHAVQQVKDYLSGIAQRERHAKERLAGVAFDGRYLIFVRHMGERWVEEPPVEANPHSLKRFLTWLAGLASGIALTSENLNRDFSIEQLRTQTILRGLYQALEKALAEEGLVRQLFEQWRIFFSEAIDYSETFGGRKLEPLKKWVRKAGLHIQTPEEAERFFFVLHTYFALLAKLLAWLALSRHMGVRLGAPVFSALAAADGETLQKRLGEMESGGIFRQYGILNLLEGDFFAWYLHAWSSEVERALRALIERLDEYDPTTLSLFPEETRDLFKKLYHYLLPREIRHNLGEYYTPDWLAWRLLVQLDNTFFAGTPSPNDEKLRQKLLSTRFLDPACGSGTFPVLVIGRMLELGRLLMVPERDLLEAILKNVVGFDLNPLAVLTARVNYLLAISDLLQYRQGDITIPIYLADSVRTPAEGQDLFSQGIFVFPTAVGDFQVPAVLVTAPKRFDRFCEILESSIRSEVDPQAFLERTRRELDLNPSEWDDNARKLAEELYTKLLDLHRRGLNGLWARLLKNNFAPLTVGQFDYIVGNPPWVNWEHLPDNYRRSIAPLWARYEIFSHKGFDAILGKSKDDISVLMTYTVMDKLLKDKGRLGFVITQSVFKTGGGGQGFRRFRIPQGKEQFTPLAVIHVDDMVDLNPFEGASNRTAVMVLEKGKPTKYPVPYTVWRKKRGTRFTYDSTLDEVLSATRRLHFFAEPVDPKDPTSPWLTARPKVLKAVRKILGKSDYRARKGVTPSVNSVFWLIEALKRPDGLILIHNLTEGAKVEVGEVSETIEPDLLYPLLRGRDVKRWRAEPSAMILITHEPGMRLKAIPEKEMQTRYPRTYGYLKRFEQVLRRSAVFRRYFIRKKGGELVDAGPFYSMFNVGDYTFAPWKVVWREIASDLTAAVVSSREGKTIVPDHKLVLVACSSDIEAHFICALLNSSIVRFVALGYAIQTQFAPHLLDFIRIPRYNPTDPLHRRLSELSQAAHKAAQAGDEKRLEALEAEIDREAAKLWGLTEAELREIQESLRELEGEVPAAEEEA
Assay: DNA cleavage assay, agarose gel (stimulation of secondary-cognate-specificity cleavage)
Assay type: biochemical
Settings: pUC19 supercoiled DNA; 500 uM compound (31.25-500 uM tested); 10 mM Tris-HCl pH 7.5, 10 mM MgCl2, 50 mM NaCl, 55 °C, 1 h; activator, presumed SAM-binding motif

With `Nc1ncnc2c1ncn2[C@@H]1O[C@H](CSC[C@H](N)C(=O)O)[C@@H](O)[C@H]1O` [SAC, S-adenosyl-L-cysteine] the “DNA cleavage assay, agarose gel (stimulation of secondary-cognate-specificity cl)” value was “efficiency of TsoI SCS cleavage is significantly stimulated by high concentrations of SAC”.
